In BindingDB's records for doi:10.7270/Q2G73C4V (Nmmlsc, 2010):

Molecular target: T1, Regulator of G-protein signaling 8 (Homo sapiens, UniProt P57771)
T1 sequence (P57771 whole entry): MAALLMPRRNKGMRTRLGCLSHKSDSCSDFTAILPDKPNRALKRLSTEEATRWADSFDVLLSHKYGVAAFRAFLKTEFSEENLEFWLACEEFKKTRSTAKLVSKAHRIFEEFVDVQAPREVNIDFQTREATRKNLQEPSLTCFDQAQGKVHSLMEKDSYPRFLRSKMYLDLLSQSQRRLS
Experiment: small molecules altering RGS8 binding of Galphao – biochemical, multiplex bead flow cytometry, SAR compounds, SAR follow-up (AID 2307)

| SMILES | Ki |
| --- | --- |
| NS(=O)(=O)c1ccc(N=NCc2ccc(O)c(O)c2O)c([N+](=O)[O-])c1 [4-[[(E)-(2,3-dihydroxy-4-oxo-1-cyclohexa-2,5-dienylidene)methyl]hydrazo]-3-nitrobenzenesulfonamide] | 20 nM |
| O=C(COc1ccccc1C(=O)NN=Cc1ccc(O)c(O)c1)NN=Cc1ccc(O)c(O)c1 [N''-[(Z)-(3-hydroxy-4-oxo-1-cyclohexa-2,5-dienylidene)methyl]-2-[2-[[(Z)-(3-hydroxy-4-oxo-1-cyclohexa-2,5-dienylidene)methyl]hydrazo]-2-oxoethoxy]benzohydrazide] | 100 nM |
